How the values were obtained:
Assay in all cases: greenhouse post-emergence herbicidal test
Type in all cases: in vivo
[1] = system: AMARE (Amaranthus retroflexus); conditions: post-emergence method, application rate 16 g/ha, scale from 0 to 100; for pest or weed control at 16 g/ha: Amaranthus retroflexus, read-out: herbicidal activity against AMARE
Text: (§1) The seeds of the test plants were sown separately for each species. For the post-emergence treatment, the test plants were first grown to a height of 3 to 15 cm, depending on the plant habit, and only then treated with the active ingredients which had been suspended or emulsified in water. For this purpose, the test plants were either sown directly and grown in the same containers, or they were first grown separately as seedlings and transplanted into the test containers a few days prior to treatment. Depending on the species, the plants were kept at 10-25° C. or 20-35° C., respectively. The test period extended over 2 to 4 weeks. During this time, the plants were tended, and their response to the individual treatments was evaluated. Evaluation was carried out using a scale from 0 to 100. 100 means no emergence of the plants, or complete destruction of at least the aerial moieties, and 0 means no damage, or normal course of growth. A good herbicidal activity is given at values of at least 70 and a very good herbicidal activity is given at values of at least 85. [table]

[2] = system: POLCO (Polygonum convolvulus); conditions: post-emergence method, application rate 16 g/ha, scale from 0 to 100
Text: as §1

[3] = system: CHEAL (Chenopodium album); conditions: post-emergence method, application rate 16 g/ha, scale from 0 to 100
Text: as §1

[4] = system: SETVI (Setaria viridis); conditions: scale from 0 to 100; for herbicidal activity against SETVI: post-emergence method, application rate 16 g/ha; for damages SETVI: post emergence control 7 days after treatment (greenhouse)
Text: as §1

[5] = system: AVEFA (Avena fatua); conditions: post emergence control 7 days after treatment (greenhouse), scale from 0 to 100
Text: as §1

[6] = system: ALOMY (Alopecurus myosuroides); conditions: post emergence control 7 days after treatment (greenhouse), scale from 0 to 100
Text: as §1

[7] = system: ECHCG (Echinocloa crus-galli); conditions: post-emergence method, application rate 16 g/ha, scale from 0 to 100
Text: as §1

| Compound | pest or weed control at 16 g/ha [1] [%] | herbicidal activity against CHEAL [3] | herbicidal activity against SETVI [4] | also measured |
| --- | --- | --- | --- | --- |
| CCOC(=O)COc1ccccc1Oc1nc(-n2nc3n(c2=O)CCCC3)c(Cl)cc1Cl [Example 4, Ethyl 2-[2-[[3,5-dichloro-6-(3-oxo-5,6,7,8-tetrahydro-[1,2,4]triazolo[4,3-a]pyridin-2-yl)-2-pyridyl]oxy]phenoxy]acetate] | ≥ 70 | – | – | – |
| CCOC(=O)COc1ccccc1Oc1nc(-n2nc(C(F)(F)F)n(C)c2=O)c(F)cc1C(N)=S [Example 3, Ethyl 2-[2-[[3-carbamothioyl-5-fluoro-6-[4-methyl-5-oxo-3-(trifluoromethyl)-1,2,4-triazol-1-yl]-2-pyridyl]oxy]phenoxy]acetate] | ≥ 70 | – | – | – |
| CCOC(=O)COc1ncccc1Oc1nc(-n2nc(C)n(C(F)F)c2=O)ccc1Cl [Example 16] | – | very good (a very good herbicidal activity is given at values of at least 85) | – | herbicidal activity against AMARE [1]: very good (a very good herbicidal activity is given at values of at least 85); herbicidal activity against POLCO [2]: very good (a very good herbicidal activity is given at values of at least 85) |
| CCOC(=O)COc1ccccc1Oc1nc(-n2nc(C)n(C(F)F)c2=O)c(F)cc1Cl [Example 1, Ethyl 2-[2-[[3-chloro-6-[4-(difluoromethyl)-3-methyl-5-oxo-1,2,4-triazol-1-yl]-5-fluoro-2-pyridyl]oxy]phenoxy]acetate] | ≥ 85 | – | – | – |
| CCOC(=O)COc1ccccc1Oc1nc(-n2nc(C(C)(C)C)oc2=O)c(Cl)cc1Cl [Example 5, Ethyl 2-[2-[[6-(5-tert-butyl-2-oxo-1,3,4-oxadiazol-3-yl)-3,5-dichloro-2-pyridyl]oxy]phenoxy]acetate] | ≥ 85 | very good (a very good herbicidal activity is given at values of at least 85) | – | – |
| CCOC(=O)COc1ccccc1Oc1nc(-n2nc(C(F)(F)F)n(C)c2=S)c(F)cc1C#N [Example 18] | – | – | good (A good herbicidal activity is given at values of at least 70) | herbicidal activity against AMARE [1]: very good (a very good herbicidal activity is given at values of at least 85) |
| CCOC(=O)COc1ncccc1Oc1nc(-n2c(=O)n(C)c(=O)n(C)c2=O)c(F)cc1Cl [Example 7, Ethyl 2-[[3-[[3-chloro-6-(3,5-dimethyl-2,4,6-trioxo-1,3,5-triazinan-1-yl)-5-fluoro-2-pyridyl]oxy]-2-pyridyl]oxy]acetate] | ≥ 70 | – | – | – |
| CCOC(=O)COc1ccccc1Oc1nc(-c2nn(C)c(OC(F)F)c2Cl)c(F)cc1Cl [Example 6, Ethyl 2-[2-[[3-chloro-6-[4-chloro-5-(difluoromethoxy)-1-methyl-pyrazol-3-yl]-5-fluoro-2-pyridyl]oxy]phenoxy]acetate] | ≥ 85 | – | – | – |
| CCOC(=O)COc1ncccc1Oc1nc(-n2ncc(C(F)(F)F)c(C)c2=O)c(F)cc1Cl [Example 8, Ethyl 2-[[3-[[3-chloro-5-fluoro-6-[5-methyl-6-oxo-4-(trifluoromethyl)pyridazin-1-yl]-2-pyridyl]oxy]-2-pyridyl]oxy]acetate] | ≥ 85 | – | – | – |
| CCOC(=O)COc1ccccc1Oc1nc(N2C(=O)OC(=C(C)C)C2=O)c(F)cc1Cl [Example 26, Ethyl 2-[2-[[3-chloro-5-fluoro-6-(5-isopropylidene-2,4-dioxo-oxazolidin-3-yl)-2-pyridyl]oxy]phenoxy]acetate] | ≥ 85 | very good (a very good herbicidal activity is given at values of at least 85) | very good (a very good herbicidal activity is given at values of at least 85) | herbicidal activity against POLCO [2]: very good (a very good herbicidal activity is given at values of at least 85) |
| COC(=O)COc1ccc(Oc2nc(-n3ncc(C(F)(F)F)c(C)c3=O)c(F)cc2Cl)cc1 [example 28] | – | – | – | damages SETVI ([4]; application rate 2 g/ha): 90; damages SETVI ([4]; application rate 4 g/ha): 95; damages AVEFA ([5]; application rate 8 g/ha): 80; damages AVEFA ([5]; application rate 16 g/ha): 98; damages ALOMY ([6]; application rate 2 g/ha): 70; damages ALOMY ([6]; application rate 4 g/ha): 75 |
| CCOC(=O)COc1ccccc1Oc1nc(-n2nc(C(F)(F)F)n(C)c2=O)c(F)cc1C#N [Example 2, Ethyl 2-[2-[[3-cyano-5-fluoro-6-[4-methyl-5-oxo-3-(trifluoromethyl)-1,2,4-triazol-1-yl]-2-pyridyl]oxy]phenoxy]acetate] | ≥ 85 | – | very good (a very good herbicidal activity is given at values of at least 85) | herbicidal activity against ECHCG [7]: very good (a very good herbicidal activity is given at values of at least 85) |
| CCOC(=O)COc1ccccc1Oc1nc(-n2nc(C)n(C(F)F)c2=O)c(F)cc1F [Example 9] | – | good (A good herbicidal activity is given at values of at least 70) | good (A good herbicidal activity is given at values of at least 70) | herbicidal activity against ECHCG [7]: good (A good herbicidal activity is given at values of at least 70) |
| CCOC(=O)COc1ncccc1Oc1nc(-n2nc(C)n(C(F)F)c2=O)c(F)cc1F [Example 14] | – | – | very good (a very good herbicidal activity is given at values of at least 85) | – |
| COC(=O)COc1ccc(Oc2cc(-n3ncc(C(F)(F)F)c(C)c3=O)c(F)cc2Cl)cc1 [Example A2-11, reference compound] | – | – | – | damages SETVI ([4]; application rate 2 g/ha): 80; damages SETVI ([4]; application rate 4 g/ha): 85; damages AVEFA ([5]; application rate 8 g/ha): 70; damages AVEFA ([5]; application rate 16 g/ha): 80; damages ALOMY ([6]; application rate 2 g/ha): 60; damages ALOMY ([6]; application rate 4 g/ha): 65 |
| CCOC(=O)COc1ccccc1Oc1nc(N2C(=O)C3=C(CCCC3)C2=O)c(F)cc1Cl [Example 27, ethyl 2-[2-[[3-chloro-6-(1,3-dioxo-4,5,6,7-tetrahydroisoindol-2-yl)-5-fluoro-2-pyridyl]oxy]phenoxy]acetate] | ≥ 85 | very good (a very good herbicidal activity is given at values of at least 85) | very good (a very good herbicidal activity is given at values of at least 85) | herbicidal activity against POLCO [2]: very good (a very good herbicidal activity is given at values of at least 85); herbicidal activity against ECHCG [7]: very good (a very good herbicidal activity is given at values of at least 85) |

— patent US12331027B2, “Herbicidal pyridylethers” (BASF SE, priority 2017, dated 2025)
